The subject of data set [1] is pyrexia induced by TTG No. 2. Nature of the data set: Antipyretic Activity in Pyrexia-Induced Rabbits. The format is in vivo, Japanese rabbits. As to conditions: 200 mg./kg. oral. The protocol: Common white male Japanese rabbits, 2.0 - 3.0 kg. body weight, were injected through the ear vein with 20 μg./kg. of a pyrexia inducer TTG No. 2, purified polysaccharide preparation obtained from Pseudomonas aeruginosa (marketed by Fujisawa Pharmaceutical Company, Japan), and the body temperature was monitored with a rectal thermister-type thermometer. Three hours prior to the TTG injection four rabbits in each experimental section orally received the test drug in the dose of 200 mg./kg. One group received aspirin in a dose of 100 mg./kg and a control group no drug.

Data set [2] deals with acetic acid-induced stretching movements. Description: Analgesic Activity in mice (acetic acid stretching). The format is in vivo, mice (DDY Strain). As to conditions: control (no drug) 53. On the procedure: Male mice of the DDY Strain having mean body weight of 20 g. were divided to the groups of 10 animals each, to which compounds of this invention or aminopyrine in saline solution were administered intraperitoneally (i.p.). The dosage was 200, 50 or 12.5 mg./kg. Then 30 minutes later, 0.2 ml. per 20 g. body weight of 0.7% acetic acid in saline was injected intraperitoneally and the number of characteristic stretching movements counted for 20 minute period and compared with a control group receiving no analgesic.

The target in the next data set is T1, histidine decarboxylase (Rattus norvegicus, UniProt P16453).
T1 construct: a crude enzyme preparation obtained from fetal rats; from tissue
T1 sequence (P16453 1-656): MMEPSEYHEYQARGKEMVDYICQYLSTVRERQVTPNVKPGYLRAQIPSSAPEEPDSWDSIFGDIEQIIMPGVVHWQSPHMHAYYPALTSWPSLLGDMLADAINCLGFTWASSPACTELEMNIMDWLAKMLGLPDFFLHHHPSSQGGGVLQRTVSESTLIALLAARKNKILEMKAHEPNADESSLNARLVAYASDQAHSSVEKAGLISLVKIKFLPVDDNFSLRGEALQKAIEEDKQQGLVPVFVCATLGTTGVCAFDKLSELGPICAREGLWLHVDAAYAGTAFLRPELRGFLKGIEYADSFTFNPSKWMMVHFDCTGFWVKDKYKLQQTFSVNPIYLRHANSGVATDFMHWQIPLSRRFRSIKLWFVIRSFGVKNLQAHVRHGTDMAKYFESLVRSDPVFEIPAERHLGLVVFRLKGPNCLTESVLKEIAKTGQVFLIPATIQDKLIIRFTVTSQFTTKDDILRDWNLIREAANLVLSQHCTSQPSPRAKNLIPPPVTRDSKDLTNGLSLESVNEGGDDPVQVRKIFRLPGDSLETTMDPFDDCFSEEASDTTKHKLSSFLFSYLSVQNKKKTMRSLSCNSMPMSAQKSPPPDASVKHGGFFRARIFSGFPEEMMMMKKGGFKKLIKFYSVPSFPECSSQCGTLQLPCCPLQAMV
Nature of the data set: Inhibition of Histidine Decarboxylase (14C-histamine formation). The format is biochemical, fetal rats. On the procedure:
After two hours of incubation at 37° C., the histamine 2-^14 C formed was collected on an ion exchange resin ("Amberlite" CG-50, ammonia type) from which, after washing with water, the histamine was liberated in 1N aqueous ammonia solution and radioactivity was measured.

The test system of a further data set is mice and rats. As to conditions: in vivo. The protocol: The acute toxicity was determined for oral and intraperitoneal administration with mice and rats (6 mice and 2 rats in one dose group), and the LD50 value, i.e., the single application dose killing 50% of the test animals, was estimated.
Setting [3] is: 2 hrs. after TTG, control (no drug) 1.2.
Setting [4] is: 4 hrs. after TTG, control (no drug) 1.6.
Setting [5] is: pH 6.8, two hours at 37° C., read-out: Histidine Decarboxylase Inhibition ID50.

Read-outs that look alike come from different tables or passages of the source.

This is an account of results in patent US4091097A, “Treatment of elevated histamine and uric acid levels” (Zaidan Hojin Biseibutsu Kagaku Kenkyu Kai, priority 1973, dated 1978).

Consider `CC(C)CC(=O)Oc1ccccc1C(=O)Nc1cc(Cl)c(OC(=O)CC(C)C)c(Cl)c1` [Compound 31], for which the “Antipyretic Activity: Elevation of Body Temperature” value (“Antipyretic Activity: Elevation” below) came to 0.6 °C in data set [1] (setting [3]) and 0.5 °C in data set [1] (setting [4]). The “Analgesic Activity: Stretching Count (20 minutes)” value (“Analgesic Activity” below) stood at 13 in data set [2] (50 mg./kg. i.p.) and 4 in data set [2] (200 mg./kg. i.p.). On histidine decarboxylase (setting [5]), the IC50 was 17 nM.

Consider `CC(=O)Oc1ccccc1C(=O)Nc1cc(Cl)c(OC(C)=O)c(Cl)c1` [Compound 30], for which the “Antipyretic Activity: Elevation” value in data set [1] (setting [3]) and in data set [1] (setting [4]) was 0.5 °C each time. In addition, the “Analgesic Activity” value came out at 14 in data set [2] (50 mg./kg. i.p.) and 4 in data set [2] (200 mg./kg. i.p.). At histidine decarboxylase (setting [5]), the IC50 is 24 nM.

Regarding `O=C(Nc1cc(Cl)c(O)c(C(=O)O)c1)c1ccccc1O` [Compound 7], the “Antipyretic Activity: Elevation” value worked out at 0.6 °C in data set [1] (setting [3]) and 0.5 °C in data set [1] (setting [4]). For the same compound, the “Analgesic Activity” value in data set [2] (50 mg./kg. i.p.) is given as 40; in data set [2] (200 mg./kg. i.p.), 14. Also, the IC50 at histidine decarboxylase (setting [5]) is 110 nM.

Consider `O=C(Nc1ccc(O)c(Br)c1)c1ccc(O)cc1O` [Compound 5], for which the figures for the “Antipyretic Activity: Elevation” value in data set [1] (setting [3]) and in data set [1] (setting [4]) were 0.5 °C and 0.4 °C, respectively. The “Analgesic Activity” value is given as 14 in data set [2] (50 mg./kg. i.p.) and 6 in data set [2] (200 mg./kg. i.p.). For the same compound, the comparative toxicity entry with mice and rats is recorded as “comparatively more toxic than the others”. Also, at histidine decarboxylase (setting [5]), the IC50 was 30 nM.

Turning to `O=C(Nc1cc(Cl)c(O)c(Cl)c1)c1ccc(F)cc1O` [Compound 9], the “Antipyretic Activity: Elevation” value in data set [1] (setting [3]) and in data set [1] (setting [4]) was 0.6 °C throughout. The “Analgesic Activity” value in data set [2] (50 mg./kg. i.p.) is listed as 35; in data set [2] (200 mg./kg. i.p.), 20. In addition, the IC50 at histidine decarboxylase (setting [5]) came out at 89 nM.

With `CCc1ccc(C(=O)Nc2cc(Br)c(O)c(CC)c2)c(O)c1` [Compound 17], the IC50 at histidine decarboxylase (setting [5]) came out at 460 nM.

Consider `CCc1cc(NC(=O)c2cc(C)ccc2O)cc(C(=O)OC)c1O` [Compound 29], for which, on histidine decarboxylase (setting [5]), the IC50 is 980 nM.

As for `COc1c(F)cc(NC(=O)c2cc(Cl)ccc2O)cc1Cl` [Compound 26], on histidine decarboxylase (setting [5]), the IC50 is 690 nM.

Turning to `CC(=O)Oc1ccc(OC(C)=O)c(C(=O)Nc2cc(Cl)c(O)c(Cl)c2)c1` [Compound 40], the IC50 on histidine decarboxylase (setting [5]) was determined as 310 nM.

With `Cc1cc(NC(=O)c2ccccc2O)cc(Cl)c1O` [Compound 12], the IC50 at histidine decarboxylase (setting [5]) was 120 nM.

As for `Cc1ccc(C(=O)Nc2cc(Cl)c(O)c(Cl)c2)c(O)c1` [Compound 8], the “Antipyretic Activity: Elevation” value in data set [1] (setting [3]) amounted to 0.6 °C; in data set [1] (setting [4]) it was 0.5 °C. For the same compound, the “Analgesic Activity” value in data set [2] (50 mg./kg. i.p.) is on record as 40; in data set [2] (200 mg./kg. i.p.), 21. The IC50 against histidine decarboxylase amounted to 96 nM.

Take `CCOc1c(Cl)cc(NC(=O)c2ccc(O)cc2O)cc1Br` [Compound 15]: in the data set on mice and rats, the comparative toxicity entry is “comparatively more toxic than the others”. At histidine decarboxylase (setting [5]), the IC50 amounted to 310 nM.

Turning to `CCCC(=O)Oc1ccc(C(=O)Nc2cc(Cl)c(N)c(C(=O)OC)c2)c(OC(=O)CCC)c1` [Compound 42], the comparative toxicity result in the data set on mice and rats is “comparatively more toxic than the others”. Also, the IC50 on histidine decarboxylase (setting [5]) is 510 nM.

Consider `CCOC(=O)c1cc(NC(=O)c2ccccc2OC(C)=O)cc(Cl)c1O` [Compound 44], for which the IC50 on histidine decarboxylase (setting [5]) was found to be 230 nM.

For the compound `CCOc1ccc(NC(=O)c2ccc(F)cc2O)cc1Cl` [Compound 21], the IC50 on histidine decarboxylase (setting [5]) was found to be 500 nM.

Take `CCC(=O)Oc1ccccc1C(=O)Nc1cc(Cl)c(N)c(Cl)c1` [Compound 38]: the IC50 at histidine decarboxylase (setting [5]) amounted to 200 nM.

Regarding `CCc1cc(NC(=O)c2ccc(O)cc2O)cc(F)c1OC` [Compound 16], the IC50 at histidine decarboxylase (setting [5]) came out at 810 nM.

Regarding `CCC(=O)Oc1ccc(OC(=O)CC)c(C(=O)Nc2cc(Cl)c(N)c(C(=O)OC)c2)c1` [Compound 43], the comparative toxicity result in the data set on mice and rats is on record as “comparatively more toxic than the others”. For the same compound, the IC50 on histidine decarboxylase (setting [5]) amounted to 530 nM.

Take `CCOC(=O)c1cc(NC(=O)c2ccccc2OC(=O)c2ccccc2)cc(Cl)c1O` [Compound 41]: the IC50 at histidine decarboxylase (setting [5]) was determined as 320 nM.

With `COc1c(Cl)cc(NC(=O)c2ccccc2O)cc1Cl` [Compound 11], the IC50 on histidine decarboxylase (setting [5]) stood at 210 nM.

For the compound `CCC(=O)Oc1ccc(NC(=O)c2ccc(O)cc2OC(=O)CC)cc1Br` [Compound 36], on histidine decarboxylase (setting [5]), the IC50 amounted to 490 nM.

`CCc1cc(NC(=O)c2ccc(C)cc2O)cc(C(=O)OC)c1O` [Compound 28]: the IC50 at histidine decarboxylase (setting [5]) was found to be 790 nM.

With `CC(=O)Oc1ccc(O)cc1C(=O)Nc1cc(C)c(OC(C)=O)c(Cl)c1` [Compound 35], at histidine decarboxylase (setting [5]), the IC50 stood at 600 nM.

Consider `Cc1cc(NC(=O)c2ccc(Br)cc2O)cc(C(=O)O)c1O` [Compound 19], for which, in the data set with mice and rats, the comparative toxicity entry is on record as “comparatively more toxic than the others”. Further, the IC50 on histidine decarboxylase (setting [5]) was 330 nM.

Turning to `Cc1ccc(C(=O)Nc2cc(Br)c(O)c(Br)c2)c(O)c1` [Compound 22], the comparative toxicity result with mice and rats is “comparatively more toxic than the others”. At histidine decarboxylase, this compound came in with an IC50 of 800 nM.

On to `O=C(Nc1cc(F)c(O)c(Cl)c1)c1ccccc1O` [Compound 13], for which the IC50 on histidine decarboxylase (setting [5]) was 230 nM.

For the compound `CC(=O)Oc1ccc(C(=O)Nc2cc(Cl)c(O)c(Cl)c2)c(OC(C)=O)c1` [Compound 39], at histidine decarboxylase (setting [5]), the IC50 stood at 190 nM.

`CCc1ccc(O)c(C(=O)Nc2cc(Br)c(O)c(CC)c2)c1` [Compound 18]: the IC50 at histidine decarboxylase (setting [5]) was determined as 710 nM.

In the case of `O=C(Nc1ccc(O)c(Cl)c1)c1ccccc1O` [Compound 2], the “Antipyretic Activity: Elevation” value in data set [1] (setting [3]) was determined as 0.6 °C; in data set [1] (setting [4]), 0.5 °C. Moreover, the “Analgesic Activity” value in data set [2] (50 mg./kg. i.p.) was determined as 30; in data set [2] (200 mg./kg. i.p.), 12. In addition, the IC50 at histidine decarboxylase (setting [5]) came out at 2500 nM.

As for `O=C(Nc1cc(Cl)c(O)c(Cl)c1)c1ccc(O)cc1O` [Compound 4], the “Antipyretic Activity: Elevation” value in data set [1] (setting [3]) stood at 0.5 °C; in data set [1] (setting [4]), 0.4 °C. Also, the “Analgesic Activity” value in data set [2] (50 mg./kg. i.p.) is recorded as 13; in data set [2] (200 mg./kg. i.p.), 6. Also, the IC50 at histidine decarboxylase (setting [5]) stood at 28 nM.

In the case of `CC(=O)Oc1cc(O)ccc1C(=O)Nc1cc(C)c(OC(C)=O)c(Cl)c1` [Compound 34], the IC50 at histidine decarboxylase (setting [5]) turned out to be 390 nM.

In the case of `Nc1c(Cl)cc(NC(=O)c2ccccc2O)cc1Cl` [Compound 24], the comparative toxicity result with mice and rats is reported as “comparatively more toxic than the others”. Moreover, on histidine decarboxylase (setting [5]), the IC50 was found to be 140 nM.

For the compound `O=C(Nc1cc(Cl)c(O)c(C(=O)O)c1)c1cc(O)ccc1O` [Compound 23], at histidine decarboxylase (setting [5]), the IC50 amounted to 500 nM.

With `O=C(Nc1ccc(O)c(Cl)c1)c1cc(Br)ccc1O` [Compound 20], in the data set on mice and rats, the comparative toxicity entry was “comparatively more toxic than the others”. Besides, the IC50 against histidine decarboxylase was determined as 580 nM.

Consider `Cc1c(N(C)C)c(=O)n(-c2ccccc2)n1C` [Aminopyrine, reference compound], for which the “Antipyretic Activity: Elevation” value in data set [1] (setting [3]) is 0.4 °C; in data set [1] (setting [4]), 0.3 °C. The “Analgesic Activity” value in data set [2] (50 mg./kg. i.p.) is recorded as 8; in data set [2] (200 mg./kg. i.p.), 2.

Take `CC(=O)Oc1cc(F)ccc1C(=O)Nc1cc(C)c(OC(C)=O)c(Br)c1` [Compound 37]: the IC50 at histidine decarboxylase (setting [5]) worked out at 420 nM.

With `O=C(Nc1cc(Cl)c(O)c(Cl)c1)c1cc(F)ccc1O` [Compound 10], the entries for the “Antipyretic Activity: Elevation” value in data set [1] (setting [3]) and in data set [1] (setting [4]) were 0.6 °C and 0.5 °C, respectively. In addition, the results for the “Analgesic Activity” value in data set [2] (50 mg./kg. i.p.) and in data set [2] (200 mg./kg. i.p.) were 35 and 20, respectively. In addition, on histidine decarboxylase (setting [5]), the IC50 was 230 nM.
